Measurements as given in PMC10638516 (Acta Pharmaceutica Sinica. B, 2023).
Read-outs that look alike come from different tables or passages of the source.

What was measured:
[1] = target: T1, hD3R (Homo sapiens, UniProt P35462); assay: biochemical; format: binding; details: for Ki: Ki hD3, three experiments, means ± SEM
[2] = target: T2, hD2R (Homo sapiens, UniProt P14416); assay: biochemical; format: binding; details: for inhibition at 10 µM: read-out: % inhibition at 10 μmol/L hD2
[3] = target: T2, hD2R; format: cell-based
[4] = tested on: PC12 cells; assay: CCK8 cytotoxicity test, PC12; format: cell-based; details: 24 h
[5] = target: T1, hD3R; assay: ERK1/2 phosphorylation; format: cell-based; details: for effect on ERK1/2 phosphorylation mediated by hD3R, compound alone (agonist mode): CHO-hD3R cells, quinpirole at 20 μmol/L
[6] = tested on: mice; assay: Catalepsy test in mice; format: in vivo, mouse
[7] = target: hERG channel (Homo sapiens, UniProt Q12809); assay: hERG channel automated patch clamp; format: cell-based; details: hERG inhibition IC50, patch clamp, tested three times
[8] = tested on: ICR mice; assay: Spontaneous locomotor test; details: compounds 30 mg/kg i.p., RPD 1 mg/kg, 15 min
[9] = tested on: ICR mice; assay: MK-801-induced hyperactivity
[10] = target: dopamine D3 receptor; details: read-out: D3R Ki; reference modulators of the pERK assay; cited from earlier work
[11] = tested on: ICR mice; assay: Apomorphine-induced climbing; format: in vivo, mouse; details: i.p., apomorphine 1.0 mg/kg s.c.
[12] = read-out: % inhibition at 10 μmol/L hD3, 10 μmol/L test compound

T1 sequence (P35462 whole entry): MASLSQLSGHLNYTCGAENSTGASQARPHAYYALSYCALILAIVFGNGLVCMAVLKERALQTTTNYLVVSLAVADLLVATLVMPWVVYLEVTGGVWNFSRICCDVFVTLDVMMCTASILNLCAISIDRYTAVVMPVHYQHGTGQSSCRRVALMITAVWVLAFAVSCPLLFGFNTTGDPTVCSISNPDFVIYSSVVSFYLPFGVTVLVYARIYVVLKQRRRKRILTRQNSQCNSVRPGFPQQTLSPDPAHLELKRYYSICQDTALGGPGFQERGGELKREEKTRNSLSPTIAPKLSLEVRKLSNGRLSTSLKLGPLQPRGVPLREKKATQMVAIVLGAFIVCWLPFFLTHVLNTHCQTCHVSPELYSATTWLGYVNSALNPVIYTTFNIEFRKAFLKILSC
T2 sequence (P14416 whole entry): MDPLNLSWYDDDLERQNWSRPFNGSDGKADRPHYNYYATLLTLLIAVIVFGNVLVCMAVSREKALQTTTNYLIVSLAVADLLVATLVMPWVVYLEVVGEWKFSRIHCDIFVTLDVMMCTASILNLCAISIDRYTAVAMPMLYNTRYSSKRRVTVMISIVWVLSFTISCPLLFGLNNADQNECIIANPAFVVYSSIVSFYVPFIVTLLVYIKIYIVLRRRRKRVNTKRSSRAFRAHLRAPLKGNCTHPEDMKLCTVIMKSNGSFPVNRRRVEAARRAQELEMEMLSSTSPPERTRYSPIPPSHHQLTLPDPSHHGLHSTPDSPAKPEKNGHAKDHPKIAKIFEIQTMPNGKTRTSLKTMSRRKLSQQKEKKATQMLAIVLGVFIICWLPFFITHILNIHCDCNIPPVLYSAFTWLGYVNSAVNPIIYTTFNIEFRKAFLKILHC
Sequence of hERG channel (Q12809 whole entry): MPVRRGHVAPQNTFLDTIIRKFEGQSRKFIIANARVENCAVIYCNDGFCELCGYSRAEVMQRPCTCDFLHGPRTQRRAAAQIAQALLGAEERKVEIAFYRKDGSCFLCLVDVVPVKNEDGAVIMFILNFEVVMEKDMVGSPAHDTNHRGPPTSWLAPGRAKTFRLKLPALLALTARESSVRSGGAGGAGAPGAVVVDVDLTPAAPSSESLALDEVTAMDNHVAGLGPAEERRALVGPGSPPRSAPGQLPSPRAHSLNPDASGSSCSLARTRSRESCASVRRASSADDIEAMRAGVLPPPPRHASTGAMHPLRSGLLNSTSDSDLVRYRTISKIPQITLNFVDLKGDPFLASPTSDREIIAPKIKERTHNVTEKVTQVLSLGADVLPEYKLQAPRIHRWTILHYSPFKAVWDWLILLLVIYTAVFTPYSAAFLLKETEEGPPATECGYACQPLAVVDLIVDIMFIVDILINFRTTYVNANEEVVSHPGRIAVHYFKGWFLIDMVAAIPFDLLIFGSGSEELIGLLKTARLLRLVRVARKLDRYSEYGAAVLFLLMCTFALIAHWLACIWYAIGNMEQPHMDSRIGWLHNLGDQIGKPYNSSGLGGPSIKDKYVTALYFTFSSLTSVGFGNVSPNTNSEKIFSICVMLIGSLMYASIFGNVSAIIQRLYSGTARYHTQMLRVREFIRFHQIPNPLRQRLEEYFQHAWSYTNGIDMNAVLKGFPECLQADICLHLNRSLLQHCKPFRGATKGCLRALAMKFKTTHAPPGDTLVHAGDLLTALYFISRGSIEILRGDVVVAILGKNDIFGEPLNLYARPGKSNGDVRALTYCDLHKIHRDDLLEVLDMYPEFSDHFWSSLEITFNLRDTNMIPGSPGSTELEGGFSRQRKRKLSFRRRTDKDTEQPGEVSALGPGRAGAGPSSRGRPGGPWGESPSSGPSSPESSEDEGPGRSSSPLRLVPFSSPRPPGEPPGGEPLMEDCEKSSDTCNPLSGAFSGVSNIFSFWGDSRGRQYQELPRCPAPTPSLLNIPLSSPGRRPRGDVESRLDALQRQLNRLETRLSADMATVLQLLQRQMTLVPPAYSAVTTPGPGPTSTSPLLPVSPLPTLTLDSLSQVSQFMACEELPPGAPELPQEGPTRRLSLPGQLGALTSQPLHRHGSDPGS

Row | Structure (SMILES) | Ki [1] [nM] | inhibition at 10 µM [1, 12] [%] | Ki [2] [nM] | inhibition at 10 µM [2] [%] | other results
1 | CCn1c2ccccc2c2cc(CNCCCCNC(=O)c3ccc4[nH]c(=O)[nH]c4c3)ccc21 [23e] | 99.3 ± 31.9 | 99.2 ± 0.5 | > 10000 | 1.9 ± 10.7 | 
2 | CCn1c2ccccc2c2cc(CNCCCCNC(=O)c3cc4ccccc4[nH]3)ccc21 [23a] | 62.6 ± 8 | 87 ± 2.5 | > 10000 | 30 ± 14.1 | 
3 | CCn1c2c(c3ccccc31)CCN(CCCCNC(=O)c1ccc3[nH]c(=O)[nH]c3c1)C2 [42j] | 149 | 85.9 ± 0.07 |  | 48.8 ± 0.7 | 
4 | CCCN(CCCCNC(=O)c1cc2ccccn2n1)Cc1ccc2c(c1)c1ccccc1n2CC [31e] | 478 ± 29.4 | 74.8 ± 1.5 | > 10000 | 18.6 ± 2.5 | 
5 | CCn1c2ccccc2c2cc(CNCCCCNC(=O)c3ccc(-c4ccccc4)cc3)ccc21 [23g] | 206 ± 2.9 | 102 ± 1.2 | > 10000 |  | 
6 | CCn1c2c(c3ccccc31)CCN(CCCCNC(=O)c1ccc3nc[nH]c3c1)C2 [42f] | 300 | 80.6 ± 1.1 |  | 54.1 ± 0.1 | 
7 | CCn1c2ccccc2c2cc(CNCCCCNC(=O)c3ccc4[nH]c(=O)oc4c3)ccc21 [23f] | 95.1 ± 8.9 | 97.6 ± 0.3 | > 10000 | 5.5 ± 21.5 | 
8 | CC(C)n1c2ccccc2c2cc(CNCCCn3ccnc3)ccc21 [3c] | 665 ± 13.5 | 83.8 ± 10.2 | > 10000 | 1.7 ± 9.2 | 
9 | CCn1c2ccccc2c2cc(CNCCCCNC(=O)c3cc4ccccn4n3)ccc21 [23c] | 45.7 ± 2.2 | 98.4 ± 2 | > 10000 |  | 
10 | Cn1c2c(c3ccccc31)CN(CCCCNC(=O)c1cc3ccccc3[nH]1)CC2 [36a] | 10.6 ± 4.5 | 97.6 ± 2 | > 10000 | 20.9 ± 3.8 | effect on ERK1/2 phosphorylation mediated by hD2R, compound alone (agonist mode) [3]: weak partial agonism; cytotoxicity in PC12 cells [4]: significant cytotoxicity at high concentrations; effect on ERK1/2 phosphorylation mediated by hD3R, compound alone (agonist mode) [5]: no influence; competitive antagonism of ERK1/2 phosphorylation mediated by D3R ([5]; in the presence of 20 μmol/L dopamine): dose-dependently inhibit; Catalepsy MED i.p. (minimum effective dose) [6]: ≥480.0 mg/kg; Catalepsy peak effect (percent of cataleptic animals) ([6]; i.p.): 0.0%; catalepsy under all tested doses ([6]; i.p., 23j up to 240 mg/kg, 36a/b/f up to 480 mg/kg): did not elicit catalepsy; IC50 [7]: 1320 nM; effect on spontaneous locomotion [8]: no influences; inhibition of MK-801-induced hyperactivity at 3 mg/kg ([9]; 3 mg/kg i.p.): did not show the inhibition activity
11 | Cn1c2c(c3ccccc31)CCN(CCCCNC(=O)c1ccc(-c3cccnc3)cc1)C2 [42g] |  | 69.6 ± 0.8 |  | 37.8 ± 1 | 
12 | CCn1c2ccccc2c2cc(CNCCCCNC(=O)c3ccc4[nH]cnc4c3)ccc21 [23d] | 125 ± 17.6 | 98.5 ± 2.3 | > 10000 | 2.7 ± 4.3 | 
13 | CCn1c2c(c3ccccc31)CCN(CCCCNC(=O)c1cc3ccccc3[nH]1)C2 [42b] | 12.9 ± 2.1 | 106 ± 3.6 | > 10000 | 17.5 ± 1.5 | 
14 | CCN(CCCCNC(=O)c1cc2ccccc2[nH]1)Cc1ccc2c(c1)c1ccccc1n2CC [31a] | 134 ± 9.6 | 96.2 ± 0.2 | 333 ± 3.6 | 88.1 ± 1.5 | 
15 | c1ccc2c(c1)[nH]c1ccc(CNCCCn3ccnc3)cc12 [compound 8] |  | 54.2 ± 7.7 |  | 33.2 ± 17.5 | 
16 | CCn1c2ccccc2c2cc(CNCCCn3cnc4cncnc43)ccc21 [17e] |  |  |  | 10.6 ± 7.4 | 
17 | CCn1c2ccccc2c2cc(CNCCCCNC(=O)c3ccc(-c4ccc(C(C)=O)cc4)cc3)ccc21 [23h] | 24.2 ± 4.4 | 105 ± 1.5 | > 10000 | 5.2 ± 7.6 | 
18 | CCn1c2ccccc2c2cc(CNCCCNC(=O)c3nc4ccccc4[nH]3)ccc21 [22c] |  | 32.7 ± 11.4 |  | 22.4 ± 5.7 | 
19 | CCn1c2ccccc2c2cc(CNCCCCNC(=O)c3ccc4[nH]c5ccccc5c4c3)ccc21 [23k] | 145 ± 11.9 | 98.1 ± 0.8 | > 10000 | 10.6 ± 3.3 | 
20 | CCn1c2ccccc2c2cc(CNCCCn3cnc4c(Cl)ncnc43)ccc21 [17f] |  |  |  | 12.8 ± 7.7 | 
21 | CCn1c2c(c3ccccc31)CCN(CCCCNC(=O)c1ccc(-c3cccnc3)cc1)C2 [42h] |  | 31.3 ± 0.6 |  | 28.9 ± 0.8 | 
22 | Cn1c2c(c3ccccc31)CN(CCCCNC(=O)c1ccc(-c3cccnc3)cc1)CC2 [36g] | 29 ± 3.3 | 83.8 ± 12.7 | > 10000 | 29.2 ± 5.8 | 
23 | Cn1c2c(c3ccccc31)CN(CCCCNC(=O)c1cnc3ccccc3c1)CC2 [36d] |  | 42.5 ± 6.8 |  | 15.6 ± 12.9 | 

Row | Structure (SMILES) | Ki [1] [nM] | inhibition at 10 µM [1, 12] [%] | Ki [2] [nM] | inhibition at 10 µM [2] [%] | other results
24 | CCCN1CCO[C@@H]2c3cc(O)ccc3OC[C@H]21 [PD128907, reference compound] |  |  |  |  | effect on ERK1/2 phosphorylation mediated by hD2R, compound alone (agonist mode) [3]: but not CHO-hD2R cells; effect on ERK1/2 phosphorylation mediated by hD3R, compound alone (agonist mode) [5]: full ERK1/2 phosphorylation; Ki [10]: 1 nM
25 | CCCN(CCCCNC(=O)c1cc2ccccc2[nH]1)Cc1ccc2c(c1)c1ccccc1n2CC [31c] | 448 ± 26.1 | 98.6 ± 0.6 | 301 ± 11.9 | 89.8 ± 2.9 | 
26 | Cn1c2c(c3ccccc31)CN(CCCCNC(=O)c1ccnc3ccccc13)CC2 [36e] |  | 68.1 ± 1.9 |  | -2 ± 17.4 | 
27 | CCN(CCCCNC(=O)c1ccc(-c2cccnc2)cc1)Cc1ccc2c(c1)c1ccccc1n2CC [31b] | 422 ± 18.3 | 78.5 ± 0.3 | > 10000 | 36.9 ± 2.1 | 
28 | CCn1c2ccccc2c2cc(CNCCCNC(=O)c3cc4ccccc4[nH]3)ccc21 [22b] |  | 21.3 ± 8.5 |  | 8.1 ± 3.9 | 
29 | Cn1c2c(c3ccccc31)CN(CCCCNC(=O)c1cn3nc(Cl)ccc3n1)CC2 [36c] |  | 66.3 ± 9.1 |  | 21.1 ± 9 | 
30 | CCn1c2ccccc2c2cc(CNCCCCNC(=O)c3ccnc4ccccc34)ccc21 [23m] |  | 63.1 ± 0.2 |  |  | 
31 | Cn1c2c(c3ccccc31)CN(CCCCNC(=O)c1ccc3[nH]cnc3c1)CC2 [36j] | 14.2 ± 0.7 | 74.4 ± 8.2 | > 10000 | 27.7 ± 1.4 | 
32 | CCn1c2ccccc2c2cc(CNCCCCNC(=O)c3nc4ccccc4[nH]3)ccc21 [23b] | 578 ± 85 | 86.7 ± 1.9 | > 10000 |  | 
33 | Cn1c2c(c3ccccc31)CN(CCCCNC(=O)c1ccc3[nH]c(=O)[nH]c3c1)CC2 [36i] | 3.7 ± 0.6 | 87.5 ± 6.1 | > 10000 | 38.9 ± 3.8 | 
34 | Cn1c2c(c3ccccc31)CN(CCCCNC(=O)c1ccc3[nH]c4ccccc4c3c1)CC2 [36h] | 19.6 ± 7.3 | 95.5 ± 0.7 |  | 74.4 ± 3.3 | 
35 | CCn1c2ccccc2c2cc(CNCCCCNC(=O)c3cnc4ccccc4c3)ccc21 [23l] | 85.7 ± 2.9 | 100 ± 1.3 | > 10000 | 9.6 ± 0.1 | 
36 | Cn1c2c(c3ccccc31)CCN(CCCCNC(=O)c1ccc3[nH]c(=O)[nH]c3c1)C2 [42i] | 112 | 85.2 ± 0.5 |  | 37.6 ± 0.2 | 
37 | CCCN(CCCCNC(=O)c1ccc(-c2cccnc2)cc1)Cc1ccc2c(c1)c1ccccc1n2CC [31d] | 994 ± 45.3 | 81.3 ± 0.6 | > 10000 | 26.8 ± 0.9 | 
38 | CCn1c2ccccc2c2cc(CNCCCn3cnc4ccccc43)ccc21 [17d] | 1100 ± 115 |  | > 10000 | 71.8 ± 3.6 | inhibition at 10 µM ([1]; read-out: % inhibition at 10 μmol/L hD3): 75 ± 14.5%
39 | Cn1c2c(c3ccccc31)CCN(CCCCNC(=O)c1ccc3nc[nH]c3c1)C2 [42e] | 203 | 81.5 ± 0.6 |  | 49.7 ± 1.2 | 
40 | CCn1c2c(c3ccccc31)CN(CCCCNC(=O)c1cc3ccccc3[nH]1)CC2 [36k] | 15.5 ± 1.8 | 106 ± 2.2 | > 10000 | 13.2 ± 7.3 | 
41 | CCn1c2ccccc2c2cc(CNCCCCNC(=O)c3ccc(-c4ccccn4)cc3)ccc21 [23i] | 21.3 ± 4.3 | 101 ± 0.8 | > 10000 | 6.5 ± 2.3 | improvement of D3R binding affinity versus the phenyl group (23g) [1]: approximately 10 fold
42 | NCCc1ccc(O)c(O)c1 [dopamine, reference compound] |  |  |  |  | effect on ERK1/2 phosphorylation mediated by hD2R, compound alone (agonist mode) [3]: significantly increased
43 | CCn1c2ccccc2c2cc(CNCCCCn3ccnc3)ccc21 [17a] | 994 ± 36.6 | 75.6 ± 3.5 | > 10000 |  | 
44 | CCn1c2ccccc2c2cc(CNCCCNC(=O)N(C)C)ccc21 [22a] |  | 42.1 ± 2.2 |  |  | 
45 | Cn1c2c(c3ccccc31)CCN(CCCCNC(=O)c1cc3ccccc3[nH]1)C2 [42a] | 6.8 ± 0.8 | 106 ± 1.3 | > 10000 | 9.1 ± 16.4 | 
46 | CN(C)C(=O)N[C@H]1CC[C@H](CCN2CCN(c3cccc(Cl)c3Cl)CC2)CC1 [Cariprazine, cariprazine, reference compound] |  |  |  |  | effect on ERK1/2 phosphorylation mediated by hD2R, compound alone (agonist mode) [3]: did not exhibit significant effects; inhibition of apomorphine-induced climbing [11]: dose-dependent inhibition; inhibition of MK-801-induced hyperactivity ([9]; i.p., MK-801 0.3 mg/kg s.c., 60 min): dose-dependently inhibited
